Structures can show the parent of a compound that is named as a salt.
Experiments:
[1] = Solubility in ethanol water mixture; type: physicochemical; settings: both crystal forms
[2] = oral dosing in human patients; cited from earlier work

| Solubility [1] | SMILES | Side effects of oral dosing [2] |
| --- | --- | --- |
| good solubility | CN1CC2c3ccccc3Oc3ccc(Cl)cc3C2C1 (centres unmarked) [Asenapine maleate] | – |
| – | CN1C[C@H]2c3ccccc3Oc3ccc(Cl)cc3[C@@H]2C1 (relative stereo) [Asenapine, trans-5-chloro-2-methyl-2,3,3a, 12b-tetrahydro-1 H-dibenz[2,3:6,7]oxepino-[4,5-c]pyrrole] | serious cardiotoxic side effects including postural hypotension |
